Experimental data reported in the supplement of paper PMC10307832.

Experiments:
Test in all cases: relative viability (nuclei count vs DMSO), 5 days (fraction); higher = more cells survive
201T = tested on: 201T
Outline: (§1)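 For relative viability, nuclei counts in treated wells were divided by those in vehicle wells. Lung cancer cell lines had been pin-tool dosed in 1536-well plates the day after seeding and cultured for 5 days, then fixed and stained in one step (final 0.05% Triton X-100, 1% formaldehyde, 1 ug/ml Hoechst) and imaged at 4×. Doses were one drug alone or a fixed anchor-drug dose plus five library-drug doses (not always all listed) in √10 steps, and values are duplicate-plate medians.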

A-427 = tested on: A-427
Outline: as §1

ABC-1 = tested on: ABC-1
Outline: as §1

BEN = tested on: BEN
Outline: as §1

CAL-12T = tested on: CAL-12T
Outline: as §1

H3255 = tested on: H3255
Outline: as §1

LC-2-ad = tested on: LC-2-ad
Outline: as §1

LCLC-97TM1 = tested on: LCLC-97TM1
Outline: as §1

NCI-H1650 = tested on: NCI-H1650
Outline: as §1

NCI-H1651 = tested on: NCI-H1651
Outline: as §1

NCI-H1915 = tested on: NCI-H1915
Outline: as §1

NCI-H1944 = tested on: NCI-H1944
Outline: as §1

NCI-H2023 = tested on: NCI-H2023
Outline: as §1

NCI-H2087 = tested on: NCI-H2087
Outline: as §1

NCI-H441 = tested on: NCI-H441
Outline: as §1

NCI-H460 = tested on: NCI-H460
Outline: as §1

NCI-H520 = tested on: NCI-H520
Outline: as §1

NCI-H596 = tested on: NCI-H596
Outline: as §1

NCI-H650 = tested on: NCI-H650
Outline: as §1

NCI-H661 = tested on: NCI-H661
Outline: as §1

NCI-H727 = tested on: NCI-H727
Outline: as §1

PC-3 [JPC-3] = tested on: PC-3 [JPC-3]
Outline: as §1

## O=c1cc(N2CCOCC2)oc2c(-c3cccc4c3sc3ccccc34)cccc12 + CCNC(=O)c1noc(-c2cc(C(C)C)c(O)cc2O)c1-c1ccc(CN2CCOCC2)cc1 [Luminespib] (partner 0.01 µM)
201T; first compound 0.01 µM
  relative viability: 0.961
201T; first compound 0.03162 µM
  relative viability: 1.1
201T; first compound 0.1 µM
  relative viability: 1.03
201T; first compound 0.3162 µM
  relative viability: 1.02
201T; first compound 1 µM
  relative viability: 0.996
A-427; first compound 0.01 µM
  relative viability: 0.944
A-427; first compound 0.03162 µM
  relative viability: 0.903
A-427; first compound 0.1 µM
  relative viability: 0.898
A-427; first compound 0.3162 µM
  relative viability: 0.93
A-427; first compound 1 µM
  relative viability: 1.01
ABC-1; first compound 0.01 µM
  relative viability: 0.458
ABC-1; first compound 0.03162 µM
  relative viability: 0.452
ABC-1; first compound 0.1 µM
  relative viability: 0.796
ABC-1; first compound 0.3162 µM
  relative viability: 0.501
ABC-1; first compound 1 µM
  relative viability: 0.53
BEN; first compound 0.01 µM
  relative viability: 0.298
BEN; first compound 0.03162 µM
  relative viability: 0.359
BEN; first compound 0.1 µM
  relative viability: 0.236
BEN; first compound 0.3162 µM
  relative viability: 0.497
BEN; first compound 1 µM
  relative viability: 0.318
CAL-12T; first compound 0.01 µM
  relative viability: 0.723
CAL-12T; first compound 0.03162 µM
  relative viability: 0.621
CAL-12T; first compound 0.1 µM
  relative viability: 0.292
CAL-12T; first compound 0.3162 µM
  relative viability: 0.31
CAL-12T; first compound 1 µM
  relative viability: 0.527
H3255; first compound 0.01 µM
  relative viability: 0.885
H3255; first compound 0.03162 µM
  relative viability: 0.991
H3255; first compound 0.1 µM
  relative viability: 0.948
H3255; first compound 0.3162 µM
  relative viability: 0.909
H3255; first compound 1 µM
  relative viability: 0.945
LC-2-ad; first compound 0.01 µM
  relative viability: 1.04
LC-2-ad; first compound 0.03162 µM
  relative viability: 1.12
LC-2-ad; first compound 0.1 µM
  relative viability: 0.978
LC-2-ad; first compound 0.3162 µM
  relative viability: 1.03
LC-2-ad; first compound 1 µM
  relative viability: 1.13
LCLC-97TM1; first compound 0.01 µM
  relative viability: 0.621
LCLC-97TM1; first compound 0.03162 µM
  relative viability: 0.796
LCLC-97TM1; first compound 0.1 µM
  relative viability: 0.827
LCLC-97TM1; first compound 0.3162 µM
  relative viability: 0.759
LCLC-97TM1; first compound 1 µM
  relative viability: 0.728
NCI-H1650; first compound 0.01 µM
  relative viability: 0.211
NCI-H1650; first compound 0.03162 µM
  relative viability: 0.169
NCI-H1650; first compound 0.1 µM
  relative viability: 0.196
NCI-H1650; first compound 0.3162 µM
  relative viability: 0.203
NCI-H1650; first compound 1 µM
  relative viability: 0.191
NCI-H1651; first compound 0.01 µM
  relative viability: 0.777
NCI-H1651; first compound 0.03162 µM
  relative viability: 0.736
NCI-H1651; first compound 0.1 µM
  relative viability: 0.824
NCI-H1651; first compound 0.3162 µM
  relative viability: 0.712
NCI-H1651; first compound 1 µM
  relative viability: 0.807
NCI-H1915; first compound 0.01 µM
  relative viability: 0.875
NCI-H1915; first compound 0.03162 µM
  relative viability: 0.831
NCI-H1915; first compound 0.1 µM
  relative viability: 0.807
NCI-H1915; first compound 0.3162 µM
  relative viability: 0.791
NCI-H1915; first compound 1 µM
  relative viability: 0.855
NCI-H1944; first compound 0.01 µM
  relative viability: 0.785
NCI-H1944; first compound 0.03162 µM
  relative viability: 0.758
NCI-H1944; first compound 0.1 µM
  relative viability: 0.687
NCI-H1944; first compound 0.3162 µM
  relative viability: 0.728
NCI-H1944; first compound 1 µM
  relative viability: 0.749
NCI-H2023; first compound 0.01 µM
  relative viability: 0.672
NCI-H2023; first compound 0.03162 µM
  relative viability: 0.72
NCI-H2023; first compound 0.1 µM
  relative viability: 0.793
NCI-H2023; first compound 0.3162 µM
  relative viability: 0.859
NCI-H2023; first compound 1 µM
  relative viability: 0.588
NCI-H2087; first compound 0.01 µM
  relative viability: 0.148
NCI-H2087; first compound 0.03162 µM
  relative viability: 0.146
NCI-H2087; first compound 0.1 µM
  relative viability: 0.173
NCI-H2087; first compound 0.3162 µM
  relative viability: 0.237
NCI-H2087; first compound 1 µM
  relative viability: 0.169
NCI-H441; first compound 0.01 µM
  relative viability: 0.334
NCI-H441; first compound 0.03162 µM
  relative viability: 0.406
NCI-H441; first compound 0.1 µM
  relative viability: 0.357
NCI-H441; first compound 0.3162 µM
  relative viability: 0.417
NCI-H441; first compound 1 µM
  relative viability: 0.454
NCI-H460; first compound 0.01 µM
  relative viability: 0.037
NCI-H460; first compound 0.03162 µM
  relative viability: 0.0402
NCI-H460; first compound 0.1 µM
  relative viability: 0.0368
NCI-H460; first compound 0.3162 µM
  relative viability: 0.035
NCI-H460; first compound 1 µM
  relative viability: 0.0452
NCI-H520; first compound 0.01 µM
  relative viability: 0.213
NCI-H520; first compound 0.03162 µM
  relative viability: 0.285
NCI-H520; first compound 0.1 µM
  relative viability: 0.24
NCI-H520; first compound 0.3162 µM
  relative viability: 0.209
NCI-H520; first compound 1 µM
  relative viability: 0.249
NCI-H596; first compound 0.01 µM
  relative viability: 1.05
NCI-H596; first compound 0.03162 µM
  relative viability: 0.917
NCI-H596; first compound 0.1 µM
  relative viability: 0.877
NCI-H596; first compound 0.3162 µM
  relative viability: 1.14
NCI-H596; first compound 1 µM
  relative viability: 1.01
NCI-H650; first compound 0.03162 µM
  relative viability: 0.846
NCI-H650; first compound 0.1 µM
  relative viability: 0.638
NCI-H650; first compound 0.3162 µM
  relative viability: 0.917
NCI-H650; first compound 1 µM
  relative viability: 0.813
NCI-H661; first compound 0.01 µM
  relative viability: 0.86
NCI-H661; first compound 0.03162 µM
  relative viability: 0.952
NCI-H661; first compound 0.1 µM
  relative viability: 0.948
NCI-H661; first compound 0.3162 µM
  relative viability: 0.943
NCI-H661; first compound 1 µM
  relative viability: 0.888
NCI-H727; first compound 0.01 µM
  relative viability: 0.324
NCI-H727; first compound 0.03162 µM
  relative viability: 0.399
NCI-H727; first compound 0.1 µM
  relative viability: 0.375
NCI-H727; first compound 0.3162 µM
  relative viability: 0.356
NCI-H727; first compound 1 µM
  relative viability: 0.416
PC-3 [JPC-3]; first compound 0.01 µM
  relative viability: 0.711
PC-3 [JPC-3]; first compound 0.03162 µM
  relative viability: 0.694
PC-3 [JPC-3]; first compound 0.1 µM
  relative viability: 0.689
PC-3 [JPC-3]; first compound 0.3162 µM
  relative viability: 0.695
PC-3 [JPC-3]; first compound 1 µM
  relative viability: 0.634
